The values that follow come from US20190374534A1, “LIQUID PHARMACEUTICAL COMPOSITIONS COMPRISING PERGOLIDE” (Boehringer Ingelheim Vetmedica GmbH, priority 2018, published 2019).

Counter-ions that a name gives are not always drawn.

The series in a line: Particle-size distribution (PSD) analysis, Malvern Mastersizer 3000. The class given is physicochemical. Conditions: certificate of analysis, FIG. 1; after spiral jet-mill micronization. An excerpt:
PARTICLE-SIZE DISTRIBUTION (PSD) ANALYTICAL METHOD: Equipment Malvern Mastersizer 3000 equipped with Hydro MV dispersion unit Dispersant Preparation—1. Fill the dispersion unit with hexane—2. Check that the channel 1 of background signal is less than 80 and no anomalous spikes are present—3. Check the background signal: it has to be stable and complying with the following limits: Channel 1<100, Channel 20<60. Sample Preparation—Randomize the sample by manually tumbling and rolling for 30 seconds, weigh approximately 15 mg of powder in a 100 mL Erlenmeyer flask, add 2 mL of Span 85 (Sorbitane trioleate; 5% w/w water solution). A homogeneous mixture, using the tip of a small stainless steel spatula, has to be obtained. Using a Pasteur pipette add 1 mL of water and homogenize the suspension. Repeat this operation until a volume of 8-10 mL is reached. Sonicate the sample for 5 seconds in an ultrasonic bath (25 kHz). Procedure—1. Once a stable background signal is obtained, proceed with the SOP—2. Add the sample until the obscuration target is reached. Avoid droplets to fall directly into the liquid when adding the sample suspension putting the pipette tip under water—3. Initiate the measurement—4. The particle size distribution values (D10, D50 and D90) are taken directly from the Malvern screen. All three values determined for a sample are average and rounded to obtain the final values.

Take `CCCN1C[C@H](CSC)C[C@@H]2c3cccc4[nH]cc(c34)C[C@H]21` [micronized pergolide mesylate, (8β)-8-[(methylthio)methyl]-6-propylergoline]: the median particle size was determined as 13.3 μm and the “particle size distribution D90 value” is 39.4 μm.
